Data: patent publication US4018753A, “Polypeptides with ACTH-like activities” (Shionogi & Co., Ltd., priority 1974, dated 1977)
Square brackets hold non-standard residues; d marks the D form. Ends that are not written are not given here. Peptide text beside a SMILES is read from it. Aib = CC(C)(N)C(=O)O

Assays:
rats = experiment: Effect on adrenal growth and thymus involution; type: in vivo; design: key: *: The effects on adrenal growth and thymus involution are very weak; details: i.m. 20 μg and 100 μg/rat/day for 2 days
Description: The effect on adrenal growth and thymus involution was determined in the following manner: peptides were intramuscularly injected into rats at a dose of 20 μg and 100 μg/rat/day respectively for 2 days. The rats were then submitted to autopsy 24 hours after the last injection, and then the adrenal and thymus were weighed respectively.

hypophysectomized rat [1] = experiment: Adrenal-stimulating activity by intramuscular administration to hypophysectomized rat; type: in vivo; details: relative potency; USP Corticotropin Reference Standard; injected into thigh muscle, blood sample 30 minutes after injection, 11-hydroxycorticosteroids
Description: (§1) Assays for adrenal-stimulating activity of the present polypeptides were carried out according to the different methods, comparing with that of native corticotropin (ACTH), [Gly^1 ]-ACTH(1-18)-NH2 [Bull.Chem.Soc.Japan 43 196 (1970)], [Aib^1 ]-ACTH(1-18)-NH2 [ibid., 43, 3873 (1970)], [Aib^1,Lys^17,18 ]-ACTH(1-18)-NH2, Cortrosyn^R (N.V.Organon, Netherland) and Cortrosyn-Z (N.V.Organon, Netherland). The adrenal-stimulating activity by the intravenous administration to hypophysectomized rat was determined in such a manner that a peptide preparation was injected into the femoral vein and a blood sample was collected from the abdominal aorta 30 minutes after the injection. The adrenal-stimulating activity by the intramuscular administration to hypophysectomized rat was also determined, where a peptide preparation was injected into the thigh muscle and a blood sample was collected from the abdominal aorta 30 minutes after injection. Throughout the experiment, the USP Corticotropin Reference Standard was used as a standard and the production of 11-hydroxycorticosteroids was determined by the fluorophotometric method of Peterson [J.Biol. Chem. 225 25 (1957)]. For each assay method several determinations were usually performed and the data obtained independently were submitted to the statistical treatment by Sheps and Moore procedure [J.Pharmacol. Extl. Therap. 128, 99 (1960)].

melanocyte = experiment: In vivo melanocyte-stimulating activity; details: relative potency
Description: The in vivo melanocyte-stimulating activity was determined according to the method described in Endocrinol. Japonica 19, 383 (1972).

hypophysectomized rat [2] = experiment: Adrenal-stimulating activity by intravenous administration to hypophysectomized rat; type: in vivo; details: relative potency; USP Corticotropin Reference Standard; injected into femoral vein, blood sample 30 minutes after injection, 11-hydroxycorticosteroids
Description: as §1

[3] = relative potency, autopsy 24 hours after last injection, adrenal and thymus weighed

Molecule	effect on adrenal growth and thymus involution a) (rats; [3])	Adrenal-stimulating activity i.m. (hypophysectomized rat [1])	Melanocyte-stimulating activity b) in vivo (melanocyte)	Adrenal-stimulating activity i.v. (hypophysectomized rat [2])	effect on adrenal growth and thymus involution a) (rats; symbol * in the table)
CSCC[C@H](NC(=O)[C@H](CO)NC(=O)[C@H](Cc1ccc(O)cc1)NC(=O)C(C)(C)N)C(=O)N[C@@H](CCC(=O)O)C(=O)N[C@@H](Cc1c[nH]cn1)C(=O)N[C@@H](Cc1ccccc1)C(=O)N[C@@H](CCCNC(=N)N)C(=O)N[C@@H](Cc1c[nH]c2ccccc12)C(=O)NCC(=O)N[C@@H](CCCCN)C(=O)N1CCC[C@H]1C(=O)N[C@H](C(=O)NCC(=O)N[C@@H](CCCCN)C(=O)N[C@@H](CCCCN)C(=O)N[C@@H](CCCCN)C(=O)N[C@@H](CCCCN)C(N)=O)C(C)C [[Aib^1,Lys^17,18]ACTH(1-18)NH2, [Aib^1,Lys^17,18]-ACTH(1-18)-NH2] (H-[Aib]YSMEHFRWGKPVGKKKK-NH2)	0.40	9.4	0.82	9.3	
CSCC[C@H](NC(=O)[C@H](CO)NC(=O)[C@H](Cc1ccc(O)cc1)NC(=O)C(C)(C)N)C(=O)N[C@@H](CCC(=O)O)C(=O)N[C@@H](Cc1c[nH]cn1)C(=O)N[C@@H](Cc1ccccc1)C(=O)N[C@@H](CCCNC(=N)N)C(=O)N[C@@H](Cc1c[nH]c2ccccc12)C(=O)NCC(=O)N[C@@H](CCCCN)C(=O)N1CCC[C@H]1C(=O)N[C@H](C(=O)NCC(=O)N[C@@H](CCCCN)C(=O)N[C@@H](CCCCN)C(=O)N[C@@H](CCCNC(=N)N)C(=O)N[C@@H](CCCNC(=N)N)C(N)=O)C(C)C [[Aib^1]ACTH(1-18)NH2, [Aib^1]-ACTH(1-18)-NH2] (H-[Aib]YSMEHFRWGKPVGKKRR-NH2)	0.12	9.9	1.00	4.1	
GYSMEHFRWGKPVGKKRR-NH2 [[Gly^1]ACTH(1-18)NH2, [Gly^1]-ACTH(1-18)-NH2]	very weak	1.0	0.11	1.0	*
Native ACTH: native corticotropin (ACTH) (SYSMEHFRWGKPVGKKRRPVKVYPNGAEDESAEAFPLEF; Corticotropin; UniProt P01189 138-176, looked up)	very weak	4.0		1.0	*
